In patent EP0960886B1, “Peptide T and related peptides in the treatment of inflammation, including multiple sclerosis” (priority 1992, dated 1993):
Entries after “also recorded” stand apart in the source; their conditions may differ.

What was measured:
[1] = test system: LPS; assay: LPS-induced inflammation in mice (Example 5); type: in vivo, balb/c mice; design: key: indicated on a scale of (-) to (+++); indicated on a scale of (-) to (+++); indicated on a scale of (-) to (+++)
Description: Normal balb/c mice (female, 12 weeks) were administered LPS (250 µg, E. coli K-235, Sigma cat. no. L-2018) at time zero. One group of mice (50 animals) were then treated at 30 minutes intervals by i.p. injections of bovine serum albumin (BSA) (Sigma cat. no. 6793) dissolved in pyrogen-free, sterile, isotonic water (2.5 mg BSA per animal per injection, each injection containing 100 µl).
The second group of mice (50 animals) were treated at 30 minutes intervals by i.p. injections of Peptide T (Carlbiotech A/S batch 109401) dissolved in pyrogen-free, sterile, isotonic water (2.5 mg Peptide T per animal per injection, each injection 100 µl).
Glucose levels were determined on blood samples after 3 hours. Subjective parameters such as secretion from the eye, diarrhoea and general well being are indicated on a scale of (-) to (+++).

[2] = test system: PBMC; assay: Mitogen-induced lymphoproliferation (Example 12); type: cell-based, human
Description: Concanavalin A (Con A), pokeweed mitogen, (PWM) and phytohaemagglutin-P (PHA-P) were obtained from Sigma Chemical Co. (St. Louis, MO, USA). Peptide T was synthesised by Carlbiotech Ltd (Copenhagen, Denmark) and supplied as the chloride salt at 8.5 mg/ml in 0.9% benzyl alcohol as a preservative and was stored at 4°C. Peptide T was diluted to working solutions in culture medium (RPMI). Dilute solutions of Peptide T were prepared fresh from stock Peptide T for each experiment. ^3H-thymidine (5 Ci/mmol) was obtained from Amersham.
Isolation of PBMC: Whole blood from healthy, adult volunteers was drawn into heparin and peripheral blood mononuclear cells (PBMC) isolated by density gradient centrifugation on HISTOPAQUE™ (Sigma Chemical Co). PBMC were removed from the interface, washed three times in RPMI containing gentamycin (100µg/ml) and resuspended to 1x10^6 PBMC/ml in RPMI containing 10% foetal bovine serum and gentamycin. 10^5 PBMC were cultured in the presence of 100µl of mitogen suspension in 96 well plates. The final concentration of mitogen was: PWM 25µg/ml; PHA 12.5µg/ml and Con A 6.25µg/ml. 10µl of Peptide T working solution (or RPMI as negative control) was added and cell cultures incubated for a total of 5 days in a humid atmosphere, 5% CO2, 37°C. Cultures were then pulsed with ^3H-thymidine (in RPMI) 18-24 hours prior to harvesting. The amount of incorporated ^3H-thymidine was determined using a BECKMAN™ LS8000 liquid scintillation counter and proliferation expressed as either counts per minute (cpm) or as a proliferation index (PI). PI=(cpm of (PBMC+mitogen))/(cpm of (PBMC+media)) [formula]
All experiments were performed in triplicate. Results reported are characteristic of replicated experiments.
Statistical Analyses: Data were analysed by a two sample ANOVA test using 95% confidence limits such that a value of p≤0.05 was considered a significant difference.

[3] = test system: PBMC; assay: Mixed lymphocyte reaction (Example 13); type: cell-based, human
[4] = test system: K562 target cells; assay: Macrophage cytotoxicity assay (two step, K562 target cells); type: cell-based
Description: The MO/MAC cytotoxicity assay is a two step assay. After isolation of adherent cells (mainly MO/MAC) from PBMC, MO/MAC are activated by lymphokines (including IFN gamma and LPS. Subsequent to washing which removes activators, ^3H-thymidine labelled K562 target cells were added to activated MO/MAG and incubated for 3 days. The degree of cytotoxicity was proportional to the amount of radioactive label released into the culture supernatant, is shown in the following scheme : [drawing 8]

[5] = test system: K562 cells; assay: MO/MAC supernatant cytotoxicity against K562 cells; type: cell-based
Description: Supernatant (SN) of activated MO/MAC were collected from monolayers of PBMC derived adherent cells that had been exposed to LPS for 23 hours. This SN was tested for cytolytic activity against ^3H-thymidine labelled K562 cells in a 48 hour, 37°C cytotoxicity assay. SN were stored at 4°C overnight or stored frozen at -20°C for longer periods before using.
The ability of MO/MAC culture SN to lyse target K562 cells was determined in the presence of Peptide T. MO/MAC culture SN was used at a final dilution of 1:6 in the culture well.

[6] = test system: human neutrophils; assay: TNF-induced neutrophil chemiluminescence (lucigenin-dependent); type: cell-based; conditions: Figure 10
Description: Neutrophils. Neutrophils were isolated from whole blood from healthy blood donors. Separation was achieved by the rapid-single-step method of centrifugation of whole blood on FICOLL-HYPAQUE™. These were >99% viable and usually >98% pure.
Peptides and TNF. TNF was a recombinant product produced in E. coli. Peptide T and analogue 505 (D-Ser-Ser-D-Thr-Thr-D-Thr-Thr-Tyr-D-Thr) were resuspended in Hank's Balanced Salt Solution (HBSS).
To 100µl of 500-1000U/ml of TNF was added 10µl of peptide and after 5 min 100µl of 1x10^7 neutrophils/ml was added. The cells further incubated at 37°C/20 min and then tested for chemiluminescence activity. In some cases an agonist such as fMLP (10^-7M) was added. Chemiluminescence was measured in a luminometer (LKB). The results for Peptide T are presented in Figure 12 as peak rate of CL release. Lucigenin-dependent chemiluminescence was measured: this represents superoxide measurement. In another set of experiments the effects of analogue 505 on the LPS-induced neutrophil chemiluminescence were examined. In this case the LPS was essentially substituted for the TNF. The concentration of LPS was 0.005µg/ml.

[7] = test system: mouse foetal hippocampal neurons; conditions: cited from earlier work
[8] = t3hrs, LPS 250 µg, 2.5 mg Peptide T i.p. at 30 minutes intervals

With C[C@@H](N)C(=O)N[C@@H](CO)C(=O)N[C@H](C(=O)N[C@H](C(=O)N[C@H](C(=O)N[C@@H](CC(N)=O)C(=O)N[C@@H](Cc1ccc(O)cc1)C(=O)N[C@H](C(N)=O)[C@@H](C)O)[C@@H](C)O)[C@@H](C)O)[C@@H](C)O [Peptide T, D-Ala-Ser-Thr-Thr-Thr-Asn-Tyr-Thr-NH2] the General well being ([1]; t0 (baseline)) was “-”, the Secretion from eyes ([1]; t0 (baseline)) was “-” and the Diarrhoea ([1]; t0 (baseline), LPS 250 µg at time zero) was “-”. For the same compound, the Diarrhoea [1, 8] was “+”, the General well being [1, 8] was “+” and the Secretion from eyes [1, 8] was “+”. The “concentration able to inhibit stimulated PBMC cultures” value ([2]; Con A stimulated, as little as) was 0.001 pM, the “cytotoxicity for responding lymphocytes” value ([2]; Con A-induced proliferation measured daily) was “not cytotoxic” and the “proliferation index ± standard deviation” value ([2]; Con A, Peptide T 1x10^-9 M added Day 1, no Peptide T 21.0 ± 5.7) was 6.2 ± 0.5. For the same compound, the “proliferation index ± standard deviation” value ([2]; Con A, Peptide T 1x10^-9 M added Day 2, no Peptide T 21.0 ± 5.7) was 6.0 ± 1.1, the “proliferation index ± standard deviation” value ([2]; Con A, Peptide T 1x10^-9 M added Day 3, no Peptide T 21.0 ± 5.7) was 9.9 ± 0.1 and the “proliferation index ± standard deviation” value ([2]; Con A, Peptide T 1x10^-9 M added Day 4, no Peptide T 21.0 ± 5.7) was 9.5 ± 1.6. For the same compound, the “concentration able to inhibit stimulated PBMC cultures” value ([2]; PHA stimulated) was 0.1 pM, the “proliferation index ± standard deviation” value ([2]; PHA, Peptide T 1x10^-9 M added Day 1, no Peptide T 197 ± 3) was 148 ± 13 and the “proliferation index ± standard deviation” value ([2]; PHA, Peptide T 1x10^-9 M added Day 2, no Peptide T 197 ± 3) was 101 ± 7. For the same compound, the “proliferation index ± standard deviation” value ([2]; PHA, Peptide T 1x10^-9 M added Day 3, no Peptide T 197 ± 3) was 148 ± 7, the “proliferation index ± standard deviation” value ([2]; PHA, Peptide T 1x10^-9 M added Day 4, no Peptide T 197 ± 3) was 131 ± 10 and the “concentration able to inhibit stimulated PBMC cultures” value ([2]; PWM stimulated, as little as) was 0.001 pM. For the same compound, the “proliferation index ± standard deviation” value ([2]; PWM, Peptide T 1x10^-9 M added Day 1, no Peptide T 4.29 ± 0.25) was 3.13 ± 0.21, the “proliferation index ± standard deviation” value ([2]; PWM, Peptide T 1x10^-9 M added Day 2, no Peptide T 4.29 ± 0.25) was 3.20 ± 0.20 and the “proliferation index ± standard deviation” value ([2]; PWM, Peptide T 1x10^-9 M added Day 3, no Peptide T 4.29 ± 0.25) was 2.65 ± 0.17. For the same compound, the “proliferation index ± standard deviation” value ([2]; PWM, Peptide T 1x10^-9 M added Day 4, no Peptide T 4.29 ± 0.25) was 3.22 ± 0.28, the “mitogen induced proliferation of PBMC after exposure and washing” value ([2]; exposure to Peptide T for 2 hours, cells washed before mitogen) was “inhibition of proliferation” and the “Con A-induced lymphocyte proliferation measured daily” value ([2]; growth period day 2-4, Peptide T 10^-9M, compared with growth in absence of the drug) was “paralleled, but at a reduced rate”. The “growth of PBMC in the absence of mitogen” value ([2]; no mitogen) was “negligible effects; also recorded: did not significantly affect”, the “mitogen stimulation of PBMC after pre-incubation” value ([2]; pre-incubation with Peptide T for less than 30 minutes) was “no effect” and the “growth of lymphocytes in a mixed lymphocyte reaction” value [3] was “did not affect”. The “cytotoxicity of activated MO/MAC” value ([4]; Peptide T added concurrently with target cells or every day of the culture) was “able to inhibit”, the “ability of resting MO/MAC to be activated” value ([4]; Peptide T added concurrently with the activators) was “did not affect” and the “concentration below which cytotoxicity returned to control levels” value ([5]; Figure 8) was “below 1x10^-15 M”. For the same compound, the “concentration still able to block MO/MAC SN mediated lysis of K562” value ([5]; SN at final dilution of 1:6) was 0.1 pM, the “activation of human neutrophils by TNF” value [6] was “inhibits activation of human neutrophils by TNF” and the “neurotoxicity of CSF from a patient with AIDS dementia” value ([7]; CSF at 1:100,000 dilution, 44-49% killing without peptide) was “inhibited”. The gp120-induced neurotoxicity ([7]; cultures of mouse foetal hippocampal neurons) was “completely, antagonised”.
